Assay results: publication PMC2831033, “Characterization of a molecular switch system that regulates gene expression in mammalian cells through a small molecule” (2010)

Legend:
[1] = target: T1, retinoid X receptor wild type (RXRwt) (Homo sapiens, UniProt P19793); assay: luciferase reporter (CRBPII response element) activation in transfected HEK293T cells; format: cell-based
T1 construct: gene RXRA; full length RXRwt

[2] = target: T2, RXR variant Q275C;I310M;F313I (QCIMFI) (Homo sapiens, UniProt P19793, Q275C/I310M/F313I); assay: luciferase reporter activation in transfected HEK293T cells; format: cell-based
T2 construct: gene RXRA; RXR variant LBD with RXR DBD (QCIMFI)
T2 sequence (P19793 1-462 Q275C/I310M/F313I): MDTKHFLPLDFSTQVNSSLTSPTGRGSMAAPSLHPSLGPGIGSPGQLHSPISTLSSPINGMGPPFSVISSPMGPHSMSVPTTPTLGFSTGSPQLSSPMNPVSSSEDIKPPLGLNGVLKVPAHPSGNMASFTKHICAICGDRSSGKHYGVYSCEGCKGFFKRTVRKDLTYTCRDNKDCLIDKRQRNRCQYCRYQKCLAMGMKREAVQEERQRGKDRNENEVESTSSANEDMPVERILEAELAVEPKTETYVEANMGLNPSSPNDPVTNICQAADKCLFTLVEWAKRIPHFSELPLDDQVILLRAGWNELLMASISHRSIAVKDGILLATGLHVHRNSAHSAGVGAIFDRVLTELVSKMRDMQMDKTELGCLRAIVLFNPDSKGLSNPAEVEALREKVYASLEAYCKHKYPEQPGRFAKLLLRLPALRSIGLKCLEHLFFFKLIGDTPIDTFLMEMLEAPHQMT

T1 sequence (P19793 whole entry): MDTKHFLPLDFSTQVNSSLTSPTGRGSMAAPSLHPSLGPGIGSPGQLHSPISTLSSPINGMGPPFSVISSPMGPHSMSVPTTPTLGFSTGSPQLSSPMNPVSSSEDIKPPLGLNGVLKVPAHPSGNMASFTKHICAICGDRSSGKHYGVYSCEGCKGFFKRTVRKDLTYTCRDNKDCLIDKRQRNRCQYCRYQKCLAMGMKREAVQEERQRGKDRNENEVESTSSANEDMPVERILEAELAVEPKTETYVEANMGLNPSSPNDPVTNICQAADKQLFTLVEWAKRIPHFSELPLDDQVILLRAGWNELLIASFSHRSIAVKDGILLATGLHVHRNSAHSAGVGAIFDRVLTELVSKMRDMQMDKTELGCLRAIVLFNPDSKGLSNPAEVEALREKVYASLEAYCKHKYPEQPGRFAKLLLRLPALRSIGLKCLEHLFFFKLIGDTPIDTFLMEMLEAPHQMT

Substance: LG335
- EC50 [1]: 0.338 µM
- EC50 [2]: 0.038 µM
